The values that follow come from patent publication US20020046680A1, “Methine compound, a recording liquid for ink jet, and an ink jet recording method” (priority 2000, published 2002).

Type in all cases: physicochemical
A short description of series [1]: Light fastness of recorded image (xenon light, percentage of colorant remaining). To be noted: xenon light (85000 lux) for 7 days, percentage of colorant remaining at reflection densities 1, 1.5 and 2.0. The method, then: (§1) Images were respectively recorded on a photo glossy paper (Photo glossy paper EX, ink jet paper manufactured by Fuji Photo Film Co., Ltd.) by an ink jet printer (“PM-770C”, manufactured by Seiko Epson Co., Ltd.) using the obtained ink liquids 1 to 9. Hue, light fastness, humidity and heat fastness and ozone gas resistance of the obtained images were evaluated.
Regarding light fastness, an image-receiving material on which images were recorded was irradiated with xenon light (85000 lux) for 7 days using a weather meter (Atlas C. 165), the image densities before and after xenon irradiation were measured by using a reflection densitometer (X-Rite310TR), and the light fastness was evaluated in terms of the percentage of colorant remaining.
(§2) Reflection density was measured at three points which were 1, 1.5 and 2.0, and the case in which the percentage of colorant remaining were 90% or more at any of the three densities was evaluated as A, the case in which the percentage of colorant remaining was less than 90% at one or two points was evaluated as B, and the case in which the percentage of colorant remaining was less than 90% at all densities was evaluated as C.

Series [2] can be described thus: Ozone gas resistance of recorded image (percentage of colorant remaining). Conditions: ozone gas 0.5±0.1 ppm, 7 days, room temperature, dark, percentage of colorant remaining at reflection densities 1, 1.5 and 2.0.
Experimental: Regarding ozone gas resistance, the photo glossy papers on which the above-described images were formed were stood alone for 7 days in a box having an ozone gas concentration of 0.5±0.1 ppm in which were set at room temperature and in a dark room, and image densities before and after storage under ozone gas atmosphere were measured by using a reflection densitometer (X-Rite310TR), and evaluated in terms of the percentage of colorant remaining. The fore-mentioned reflection density was measured at three points which were 1, 1.5 and 2.0. The ozone gas concentration in the box was measured using an ozone gas monitor manufactured by APPLICS (Model OZG-EM-01). The case in which the percentage of colorant remaining were 70% or more at any of the densities was evaluated as A, the case in which the percentage of colorant remaining was less than 70% at one or two points was evaluated as B, and the case in which the percentage of colorant remaining was less than 70% at all densities was evaluated as C. It was evaluated at three stages.
A short description of series [3]: Humidity and heat fastness of recorded image (percentage of colorant remaining). To be noted: 80° C., humidity of 70%, 7 days, percentage of colorant remaining at reflection densities 1, 1.5 and 2.0. The method, then:
as §1
Further, regarding humidity and heat fastness, image densities before and after storage at a temperature of 80° C. and a humidity of 70% for 7 days were measured in the same manner, and evaluated in terms of the percentage of colorant remaining.
as §2

Take `Cc1ccc2[nH]c3cc4c(=O)c5cc(C)ccc5[nH]c4cc3c(=O)c2c1` [C. I. Pigment Red 122]: the Light fastness result in series [1] is recorded as “A (the percentage of colorant remaining were 90% or more at any of the three densities)”. In series [2], the ozone resistance result is on record as “A (the percentage of colorant remaining were 70% or more at any of the densities)”. For the same compound, the “Humidity and heat fastness” value in series [3] is “A (the percentage of colorant remaining were 90% or more at any of the three densities)”.
